Experimental data as given in ChEMBL document CHEMBL1145849, “QSAR and the rational design of long-acting dual D2-receptor/beta 2-adrenoceptor agonists” (J Med Chem, 2003).

Columns and labels:
[1] = molecular target: Beta-2 adrenergic receptor (Cavia porcellus) (UniProt Q8K4Z4)
Description: In vitro beta-2 duration was determined using electrically stimulated guinea-pig isolated trachea superfusion system

[2] = physchem
Description: Ionization constant (pKa)

[3] = molecular target: Beta-2 adrenergic receptor (Cavia porcellus) (UniProt Q8K4Z4); details: Trachea
Description: Beta-2-adrenoceptor potency was determined in rings of guinea-pig isolated trachea

[4] = physchem; details: octanol/water, pH 7.4, logD

Beta-2 adrenergic receptor (Cavia porcellus), sequence (Q8K4Z4 whole entry, looked up): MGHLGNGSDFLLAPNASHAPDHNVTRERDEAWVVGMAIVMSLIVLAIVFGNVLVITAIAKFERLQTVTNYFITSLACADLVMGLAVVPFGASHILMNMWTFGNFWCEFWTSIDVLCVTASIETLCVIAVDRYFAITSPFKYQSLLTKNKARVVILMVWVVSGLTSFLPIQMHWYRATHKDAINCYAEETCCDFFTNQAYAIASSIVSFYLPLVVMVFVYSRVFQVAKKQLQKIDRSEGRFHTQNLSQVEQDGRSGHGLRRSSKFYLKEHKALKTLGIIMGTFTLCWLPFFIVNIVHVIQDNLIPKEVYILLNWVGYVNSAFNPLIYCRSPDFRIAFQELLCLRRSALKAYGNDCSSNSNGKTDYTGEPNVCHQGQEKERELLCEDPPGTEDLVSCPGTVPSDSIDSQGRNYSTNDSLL

Row | Beta2 duration [1] | pKa [2] | p[A]50 [3] | logD [4] | SMILES
1 | > 180 min | > 8 | – | – | Cc1cc(C)cc(CCOCNS(=O)(=O)CCCNCCc2ccc(O)c3nc(O)sc23)c1
2 | 67 min | < 8 | 7.92 | – | O=S(=O)(CCCOCCc1ccc(F)cc1)CCNCCc1ccc(O)c2nc(O)sc12
3 | 32 min | > 8 | 7.01 | 0.88 | Oc1nc2c(O)ccc(CCNCCNCCCOCCc3ccccc3)c2s1
4 | 109 min | > 8 | 8.12 | – | Oc1nc2c(O)ccc(CCNCCCCCCOCCc3ccccn3)c2s1
5 | > 180 min | < 8 | 7.7 | 2.88 | O=S(=O)(CCCOCCc1ccc(NS(=O)(=O)c2ccccc2)cc1)CCNCCc1ccc(O)c2nc(O)sc12
6 | 180 min | > 8 | – | 1.83 | O=S(=O)(CCCOCCc1ccccc1)NCCNCCc1ccc(O)c2nc(O)sc12
7 | > 180 min | > 8 | 7.51 | 1.75 | Oc1nc2c(O)ccc(CCNCCSCCCOCCc3ccccn3)c2s1
8 | 40 min | < 8 | – | 1.56 | Cc1ccc(CCOCCCS(=O)(=O)CCNCCc2ccc(O)c3nc(O)sc23)nc1
9 | > 180 min | > 8 | 7.8 | – | Oc1nc2c(O)ccc(CCNCCCCCOCCc3ccccc3)c2s1
10 | 180 min | > 8 | – | 1.81 | C[C@@H](Cc1ccccc1)OCCCS(=O)(=O)CCNCCc1ccc(O)c2nc(O)sc12
11 | > 180 min | > 8 | 7.58 | – | CC(C)(CCCCOCCc1ccccc1N)CNCCc1ccc(O)c2nc(O)sc12
12 | 32 min | < 8 | 8.65 | 1.91 | O=S(=O)(CCCOCCc1ccc(O)cc1)CCNCCc1ccc(O)c2nc(O)sc12
13 | 60 min | > 8 | 7.01 | 1.26 | O=C(NCCCCCCNCCc1ccc(O)c2nc(O)sc12)Nc1ccccc1
14 | 45 min | < 8 | 7.72 | 2.35 | O=S(=O)(CCCOCCc1nccs1)CCNCCc1ccc(O)c2nc(O)sc12
15 | > 180 min | > 8 | 8.81 | – | Oc1ccc(CCOCCCCCCNCCc2ccc(O)c3nc(O)sc23)cc1
16 | > 180 min | > 8 | 7.78 | – | Oc1nc2c(O)ccc(CCNCCCCCCOCCc3nccs3)c2s1
17 | > 180 min | > 8 | 8.42 | – | CC(C)(CCCCCOCCc1ccccc1)NCCc1ccc(O)c2nc(O)sc12
18 | > 180 min | > 8 | 8.39 | – | CC(C)(CCCCOCCc1cccc(N)c1)CNCCc1ccc(O)c2nc(O)sc12
19 | > 180 min | > 8 | 7.77 | 3.26 | Oc1nc2c(O)ccc(CCNCCC(F)(F)CCCOCCc3ccccc3)c2s1
20 | 79 min | > 8 | 6.48 | 2.38 | O=S(=O)(CCNCCc1ccc(O)c2nc(O)sc12)NCCOCCc1ccccc1
21 | 157 min | < 8 | 7.35 | 3.13 | O=S(=O)(CCCOCCCc1ccccc1)CCNCCc1ccc(O)c2nc(O)sc12
22 | 18 min | > 8 | 7.88 | – | O=S(=O)(CCCNCCc1ccc(O)c2nc(O)sc12)CCNCCc1ccccc1
23 | 69 min | > 8 | 7.51 | 1.22 | O=S(=O)(CCOCCc1ccccc1)NCCCNCCc1ccc(O)c2nc(O)sc12

Row | Beta2 duration [1] | pKa [2] | p[A]50 [3] | logD [4] | SMILES
24 | > 180 min | – | – | – | CN(CCc1ccc(O)c2nc(O)sc12)CCN(C)C(=O)CCOCCc1ccccc1
25 | 180 min | > 8 | – | 1.69 | O=S(=O)(CCOCc1cccc2ccccc12)NCCCNCCc1ccc(O)c2nc(O)sc12
26 | 40 min | < 8 | – | – | O=S(=O)(CCCOCCNc1ccccc1)CCNCCc1ccc(O)c2nc(O)sc12
27 | 180 min | > 8 | – | 1.77 | O=S(=O)(CCCNCCc1ccc(O)c2nc(O)sc12)NCCSCCc1ccccc1
28 | > 180 min | > 8 | 8.08 | – | CC(CCCCCOCCc1ccccc1)NCCc1ccc(O)c2nc(O)sc12 (stereo not drawn)
29 | > 180 min | < 8 | 7.76 | 3.62 | O=S(=O)(CCCOCCCCc1ccccc1)CCNCCc1ccc(O)c2nc(O)sc12
30 | > 180 min | > 8 | 7.27 | 3.61 | Oc1nc2c(O)ccc(CCNCCSCCCOCCCc3ccccc3)c2s1
31 | – | > 8 | – | 1.52 | CN(CCNCCc1ccc(O)c2[nH]c(=O)sc12)C(=O)CCOCCc1ccccc1
32 | 60 min | < 8 | – | – | COc1ccc(CCOCCCS(=O)(=O)CCNCCc2ccc(O)c3nc(O)sc23)cc1
33 | 71 min | > 8 | 7.56 | 1.55 | O=C(CCCOCCc1ccccc1)NCCNCCc1ccc(O)c2nc(O)sc12
34 | > 180 min | > 8 | 9.4 | – | Nc1ccc(CCOCCCCCCNCCc2ccc(O)c3nc(O)sc23)cc1
35 | > 180 min | > 8 | – | 2.41 | Cc1ccc(CCCOCCS(=O)(=O)CCCNCCc2ccc(O)c3nc(O)sc23)s1
36 | 116 min | – | 8.29 | – | CN(CCNCCc1ccc(O)c2nc(O)sc12)C(=O)CCOCCc1ccccc1
37 | > 180 min | > 8 | – | 2.62 | O=S(=O)(CCCNCCc1ccc(O)c2nc(O)sc12)NCCOCCc1cccc(C(F)(F)F)c1
38 | 126 min | < 8 | 7.61 | 2.87 | Cc1cnc(CCOCCCS(=O)(=O)CCNCCc2ccc(O)c3nc(O)sc23)s1
39 | 180 min | > 8 | – | 1.84 | O=S(=O)(CCCNCCc1ccc(O)c2nc(O)sc12)NCCOCCSc1ccccc1
40 | – | > 8 | – | – | CN(CCc1ccc(O)c2[nH]c(=O)sc12)CCN(C)C(=O)CCOCCc1ccccc1
41 | > 180 min | > 8 | 7.73 | 2.54 | O=S(=O)(CCCNCCc1ccc(O)c2nc(O)sc12)CCOCCc1cccc2ccccc12
42 | > 180 min | > 8 | – | – | CN(CCCOCCOCCc1ccccc1)CCc1ccc(O)c2nc(O)sc12
43 | > 180 min | > 8 | – | – | CCN(CCCOCCOCCc1ccccc1)CCc1ccc(O)c2nc(O)sc12
44 | 40 min | < 8 | – | 2 | N#Cc1ccc(CCOCCCS(=O)(=O)CCNCCc2ccc(O)c3nc(O)sc23)cc1
45 | > 180 min | > 8 | 7.32 | – | Oc1nc2c(O)ccc(CCNCCCSCCCOCCc3ccccc3)c2s1
46 | 60 min | < 8 | – | 2.32 | C[C@@H](COCCCS(=O)(=O)CCNCCc1ccc(O)c2nc(O)sc12)c1ccccc1

Row | Beta2 duration [1] | pKa [2] | p[A]50 [3] | logD [4] | SMILES
47 | > 180 min | > 8 | 9.03 | – | CC(C)(CCCCOCCc1ccc(O)cc1)CNCCc1ccc(O)c2nc(O)sc12
48 | 150 min | > 8 | – | 1.63 | CSc1cccc(CCOCCS(=O)(=O)CCCNCCc2ccc(O)c3nc(O)sc23)c1
49 | 160 min | < 8 | – | – | Cc1ccccc1CCOCCCS(=O)(=O)CCNCCc1ccc(O)c2nc(O)sc12
50 | 180 min | > 8 | – | 1.92 | O=S(=O)(CCCNCCc1ccc(O)c2nc(O)sc12)NCCOCCc1cccc(Cl)c1
51 | 140 min | > 8 | 9.2 | – | NC(=O)Nc1ccc(CCOCCCCCCNCCc2ccc(O)c3nc(O)sc23)cc1
52 | 60 min | > 8 | – | 1.24 | CN(CCCNCCc1ccc(O)c2nc(O)sc12)S(=O)(=O)CCOCCc1ccccc1
53 | > 180 min | > 8 | – | 2.59 | Cc1cc(C)cc(CCOCCS(=O)(=O)NCCNCCc2ccc(O)c3nc(O)sc23)c1
54 | 120 min | < 8 | – | 2.68 | O=S(=O)(CCCOCCSc1ccccc1)CCNCCc1ccc(O)c2nc(O)sc12
55 | > 180 min | > 8 | – | 2.22 | O=S(=O)(CCOCCCc1ccccc1)NCCNCCc1ccc(O)c2nc(O)sc12
56 | 50 min | < 8 | – | 2.35 | O=S(=O)(CCCOCCc1nccc2ccccc12)CCNCCc1ccc(O)c2nc(O)sc12
57 | > 180 min | > 8 | 6.35 | – | CC(C)(CCCCOCCc1ccc([N+](=O)[O-])cc1)CNCCc1ccc(O)c2nc(O)sc12
58 | > 180 min | > 8 | 5.8 | – | Oc1nc2c(O)ccc(CCNCCCSCCOCCc3cccc4ccccc34)c2s1
59 | > 180 min | > 8 | – | – | CCCN(CCCOCCOCCc1ccccc1)CCc1ccc(O)c2nc(O)sc12
60 | > 180 min | > 8 | 7 | – | Oc1nc2c(O)ccc(CCNCCCCCOCCCc3ccccc3)c2s1
61 | > 180 min | > 8 | 8.86 | – | CC(C)(CCCCOCCc1ccc(N)cc1)CNCCc1ccc(O)c2nc(O)sc12
62 | 150 min | > 8 | – | 1.57 | O=S(=O)(CCCNCCc1ccc(O)c2nc(O)sc12)NCCOCCc1ccc(F)cc1
63 | > 180 min | > 8 | – | 2.07 | Cc1ccc(CCOCCNS(=O)(=O)CCCNCCc2ccc(O)c3nc(O)sc23)cc1
64 | 40 min | < 8 | – | 1.34 | CS(=O)(=O)Nc1ccc(CCOCCCS(=O)(=O)CCNCCc2ccc(O)c3nc(O)sc23)cc1
65 | 60 min | > 8 | – | 1.15 | O=S(=O)(CCCNCCc1ccc(O)c2nc(O)sc12)CCOCc1ccccc1
66 | 40 min | < 8 | – | 1.44 | Cc1ncsc1CCOCCCS(=O)(=O)CCNCCc1ccc(O)c2nc(O)sc12
67 | 160 min | < 8 | – | 2.86 | O=S(=O)(CCCOCCc1cc2ccccc2o1)CCNCCc1ccc(O)c2nc(O)sc12
